Source: paper PMC8235661, “Photoelectric Dye, NK-5962, as a Potential Drug for Preventing Retinal Neurons from Apoptosis: Pharmacokinetic Studies Based on Review of the Evidence” (Life, 2021)
“And” between values parts separate entries of the source, which are not always exact repeats. Identical values can stand only once. Like-named read-outs stand apart in the source and are kept apart here.

Experiments:
[1] = Eye irritation test; conditions: in vivo
[2] = Eye ball concentration after intravitreous injection; assay type: in vivo, rat; conditions: intravitreous 16 µM (3 µL)
Description: (§1) The NK-5962 solutions at 16 μM concentration in phosphate-buffered saline and at 39.7 μM concentration in 0.5% methyl cellulose 400 solution (FUJIFILM Wako Chemicals, Osaka, Japan) were prepared as eye drops and topically applied to both eyes of two Wistar rats assigned for each concentration. The eyes were enucleated 30 min after topical application, washed twice in saline, weighed, and frozen for NK-5962 measurement. In parallel, 3 μL of the NK-5962 solution at 16 μM concentration in phosphate-buffered saline was injected into the vitreous of both eyes of 2 Wistar rats. The eyes in each rat were enucleated 5 min and 2 h after the intravitreous injection, washed twice in saline, weighed, and then frozen. Both eyes of one rat served as the negative control. This study was approved by the Animal Care and Use Committee at Okayama University (Identifier OKU-2016267, OKU-2019196).
(§2) Liquid chromatography and tandem mass spectrometry instrument (LC-MS8060) equipped with Shimadzu Nexera series LC system (Shimadzu, Kyoto, Japan) were used. All compounds were analyzed in multi-reaction monitoring mode under electron spray ionization conditions. The analytical column used was a […] C18 MGIII (3 μm × 2.0 mmID × 35 mm; OSAKA SODA, Osaka, Japan) at 50 °C. The gradient mobile phase consisted of 0.1% formic acid in water (mobile phase A) and 0.1% formic acid in acetonitrile (mobile phase B) at a total flow rate of 1 mL/minute. The initial mobile phase composition was 10% B, which was held constant for 0.2 min, increased in a linear fashion to 90% B over 1 min, then held constant for 0.8 min, and then finally brought back to the initial condition of 10% B over 0.01 min and re-equilibrated for 1 min. The transitions (precursor ion > product ion) of NK-5962 and IS (methyl testosterone) are 433.2 > 279.2 and 303.1 > 109.1 (positive), respectively.

[3] = In vivo pharmacokinetics, intravenous administration; parameters: species or system rat
Description: Male Sprague Dawley (SD) and Wistar rats (5-week old) were obtained from Charles River Laboratories Japan (Yokohama, Japan) and Japan SLC, Inc. (Hamamatsu, Japan), respectively. All animals were maintained in air-conditioned quarters with room temperatures of 20 ± 2 °C, relative humidity of 50 ± 10%, and an alternating 12 h light/dark cycle. The rats were fed a certified diet MF (Oriental Yeast Co., Tokyo, Japan) and water ad libitum. The studies were conducted in accordance with the guidelines provided by the Animal Care and Use Committee of Osaka University (Identifier DouyakuR01-3-1).
A test compound (NK-5962) solution in 50% DMSO/water was injected intravenously (i.v.) to male SD rats. A test compound suspension in 0.5% methyl cellulose was administered orally (p.o.) to male Wistar rats. The dosage of the test compound was 1 mg/2 mL/kg (i.v.) and 10 or 100 mg/10 mL/kg (p.o.). Blood samples were collected from the jugular vein at 5 and 15 min and 1 h (i.v.) by using pre-heparinized syringe after the intravenous administration or from the caudal vein at 15 and 30 min, 1, 2 and 4 h (p.o.) by using heparinized capillary tube after the oral administration. At 30 min and 2 h (i.v.) or 8 h (p.o.), blood samples were collected from the abdominal aorta under isoflurane anesthesia and the eye balls and the whole brain were excised immediately.
Plasma was prepared by centrifugation of the blood samples. Plasma and tissues were stored at −80 °C. The tissues were homogenized with a four-fold volume of phosphate-buffered saline to obtain a 20% tissue homogenate. Plasma and 20% tissue homogenates were precipitated with 4–20 volumes of acetonitrile/IS and centrifuged at 15,000× g at 4 °C for 10 min. The supernatants were analyzed by liquid chromatography and tandem mass spectrometry (LC-MS/MS). Standard non-compartmental analysis was performed to determine the pharmacokinetic parameters: elimination half-life (t1/2) and area under the concentration time curve from time zero to infinity (AUC∞). The absolute bioavailability (BA) of the oral dose was calculated as AUC∞ (p.o.)/AUC∞ (i.v.).
as §2

[4] = Eye ball concentration after topical application as eye drops; assay type: in vivo; conditions: Wistar, rat
Description: as §1
Liquid chromatography and tandem mass spectrometry instrument (LC-MS8060) equipped with Shimadzu Nexera series LC system (Shimadzu, Kyoto, Japan) were used. All compounds were analyzed in multi-reaction monitoring mode under electron spray ionization conditions. The analytical column used was a […] C18 MGIII (3 μm × 2.0 mmID × 35 mm; OSAKA SODA, Osaka, Japan) at 50 °C. […]

[5] = test system: chick retinal cells including neurons and glial cells; parameters: method as in PMID 18414992; conditions: cited from earlier work; for The Percentage of Dead Cells in Total Cells: 2 days, per well
[6] = Hepatic microsomal stability assay, human; assay type: in vitro ADME
Description: The disappearance of the parent compound over time was measured by using the amount of drug at time zero as a reference. After 5 min of preincubation, 1 mM NADPH (final concentration, the same applies to the following) was added to a mixture containing 1 μM of the test compound, 0.2 mg/mL of rat or human liver microsomes (Sekisui XenoTech, LLC, Kansas City, KS), 1 mM EDTA, and 100 mM phosphate buffer (pH 7.4) and then incubated at 37 °C for 30 min by rotation at 60 rpm. An aliquot of 50 μL of the incubation mixture was sampled and added to 250 μL of chilled acetonitrile/internal standard (IS). After the centrifugation for 15 min at 3150× g at 4 °C, the supernatants were analyzed by LC-MS/MS. Hepatic microsomal stability (mL/min/kg, CLint) was calculated according to the previous report and 44.8 or 48.8 mg microsomal protein/g liver and 40.0 or 25.7 g liver/kg body weight were used as scaling factors for the rat or human, respectively.

[7] = intravenous 1 mg/kg, 0.5 h, single rat, 1 mg/kg
[8] = intravenous 1 mg/kg, 2 h, single rat, 1 mg/kg

For `CCCCN(CCCC)c1ccc(C=Cc2sc3ccccc3[n+]2CC(=O)O)cc1.[Br-]` [NK-5962, 2-[2-[4-(dibutylamino)phenyl]ethenyl]-3-carboxymethylbenzothiazolium bromide], the “toxicity in the eye irritation test” value [1] was “not toxic”, the concentration at 0.083 h ([2]; Wistar, rat, eye ball, other: intravitreous injection, 0.083 h (5 min), read-out: Mean Eye Ball Concentration) was 7.25 nM and the concentration at 0.083 h ([2]; Wistar, rat, eye ball, other: intravitreous injection, 0.083 h, single eye, read-out: Eye Ball Concentration) was 9.23 nM. It also gave a concentration at 2 h ([2]; Wistar, rat, eye ball, other: intravitreous injection, 2 h, single eye, read-out: Eye Ball Concentration) of 1.19 nM, a concentration at 2 h ([2]; Wistar, rat, eye ball, other: intravitreous injection, 2 h, read-out: Mean Eye Ball Concentration) of 1.49 nM and a concentration at 2 h ([2]; 0.083 h, single eye, read-out: Eye Ball Concentration) of 5.27 nM. For the same compound, the concentration at 2 h ([2]; 2 h, single eye, read-out: Eye Ball Concentration) was 1.78 nM, the “Plasma Concentration” value ([3]; intravenous 1 mg/kg, 0.083 h, single rat, 1 mg/kg) was 648 nM and the “Plasma Concentration” value ([3]; intravenous 1 mg/kg, 0.25 h, single rat, 1 mg/kg) was 342 nM. The “Eye Ball/ Plasma Ratio” value [3, 7] was 0.045, the “Plasma Concentration” value [3, 7] was 569 nM and the concentration at 2 h ([3]; intravenous 1 mg/kg, 0.5 h, single rat, 1 mg/kg, read-out: Eye Ball Concentration) was 25.5 nM. The “Plasma Concentration” value ([3]; intravenous 1 mg/kg, 1 h, single rat, 1 mg/kg) was 34.6 nM, the “Eye Ball/ Plasma Ratio” value [3, 8] was 0.16 and the “Plasma Concentration” value [3, 8] was 22.0 nM. For the same compound, the concentration at 2 h ([3]; intravenous 1 mg/kg, 2 h, single rat, 1 mg/kg, read-out: Eye Ball Concentration) was 3.42 nM, the Kp at 0.5 h ([3]; male, Sprague Dawley, rat, eye ball / plasma, iv, 1 mg/kg, intravenous 1 mg/kg, 0.5 h, single rat, read-out: Eye Ball/ Plasma Ratio) was 0.052 and the Kp at 2 h ([3]; male, Sprague Dawley, rat, eye ball / plasma, iv, 1 mg/kg, intravenous 1 mg/kg, 2 h, single rat, read-out: Eye Ball/ Plasma Ratio) was 0.17. It also gave a concentration at 0.5 h ([3]; male, Sprague Dawley, rat, eye ball, iv, 1 mg/kg, intravenous 1 mg/kg, 0.5 h (30 min), read-out: Mean Eye Ball Concentration) of 29.8 nM, a concentration at 0.5 h ([3]; male, Sprague Dawley, rat, eye ball, iv, 1 mg/kg, intravenous 1 mg/kg, 0.5 h, single rat, read-out: Eye Ball Concentration) of 34.1 nM and a concentration at 2 h ([3]; male, Sprague Dawley, rat, eye ball, iv, 1 mg/kg, intravenous 1 mg/kg, 2 h, single rat, read-out: Eye Ball Concentration) of 4.16 nM. It also gave a concentration at 2 h ([3]; male, Sprague Dawley, rat, eye ball, iv, 1 mg/kg, intravenous 1 mg/kg, 2 h, read-out: Mean Eye Ball Concentration) of 3.79 nM, a concentration at 0.083 h ([3]; male, Sprague Dawley, rat, plasma, iv, 1 mg/kg, intravenous 1 mg/kg, 0.083 h, single rat) of 779 nM and a concentration at 0.25 h ([3]; male, Sprague Dawley, rat, plasma, iv, 1 mg/kg, intravenous 1 mg/kg, 0.25 h, single rat) of 511 nM. For the same compound, the concentration at 0.5 h ([3]; male, Sprague Dawley, rat, plasma, iv, 1 mg/kg, intravenous 1 mg/kg, 0.5 h, single rat, read-out: Plasma Concentration) was 661 nM, the concentration at 1 h ([3]; male, Sprague Dawley, rat, plasma, iv, 1 mg/kg, intravenous 1 mg/kg, 1 h, single rat) was 49.9 nM and the concentration at 2 h ([3]; male, Sprague Dawley, rat, plasma, iv, 1 mg/kg, intravenous 1 mg/kg, 2 h, single rat, read-out: Plasma Concentration) was 24.3 nM. The half-life ([3]; male, Sprague Dawley, rat, plasma, intravenous 1 mg/kg body weight, rats) was 21 min, the concentration at 0.5 h ([4]; topical eye drop 16 µM (10 µL)) was 0.14 nM and the concentration at 0.5 h ([4]; topical eye drop 39.7 µM (10 µL)) was 0.96 nM. The “percentage of dead cells, dependence on concentration” value ([5]; 2 days culture, dark or light condition, P = 0.0183 two-factor ANOVA) was “significantly smaller at higher concentrations”, the “The Percentage of Dead Cells in Total Cells” value (shortened to “The Percentage of Dead Cells”) ([5]; NK-5962 1.6 × 10^−5 M, light exposure yes (230 lux 9 h daily)) was 1.3% and 0% and 0.5% and 0.3% and 1.9% and 3.2% and 3.0% and the “The Percentage of Dead Cells” value ([5]; NK-5962 1.6 × 10^−6 M, light exposure no) was 2.5% and 0.4% and 1.3% and 2.4% and 0.8% and 1.7% and 1.9% and 1.4%. The “The Percentage of Dead Cells” value ([5]; NK-5962 1.6 × 10^−7 M, light exposure no) was 5.1% and 2.0% and 0.3% and 1.2% and 0% and 2.3% and 2.2% and 1.3%, the “Microsome Metabolic Stability Human” value ([6]; 1 μM, 0.2 mg/mL microsomes, 1 mM NADPH, 30 min) was 54.5 µL/min/mg and the “metabolic stability (in words)” value ([6]; human liver microsomes) was “moderate metabolic stability”. For the same compound, the “stability in the absence of the coenzyme NADPH” value ([6]; human liver microsomes, without NADPH) was “stable” and the CLint scaled at 1 μM ([6]; human, liver microsomes, pH 7.4, 1 μM, 0.2 mg/mL microsomes, 1 mM NADPH, 30 min, read-out: Microsome Metabolic Stability Human (CLint)) was 68.3 mL/min/kg.
